# In the oligonucleotide strings, read from the 5' end, every base follows the letter of its sugar. An asterisk marks phosphorothioate; unmarked linkages are phosphodiester. Other units and linkages are bracketed, terminal groups are in braces. A string of capitals states the bases alone. e = 2'-O-(2-methoxyethyl) (MOE); [5mC] = 5-methylcytosine
# Key:
# [1] = test system: BJ, B16-F10, T47D, T47Dp53 and HeLa cells; assay: Cell cycle assay (propidium iodide flow cytometry), cell line panel; assay type: cell-based; settings: 150 nM oligomeric compound, 4.5 μg/ml LIPOFECTIN, after 72 hours, propidium iodide flow cytometry
# [2] = test system: IL-12 mRNA; assay: IL-12 mRNA in LPS-activated primary murine macrophages; assay type: cell-based, mouse; settings: for IL-12 mRNA expression, % UTC: LPS, average of 3 treatments
substance,measurement,setting,value
327941 (antisense eA*eA*e[5mC]*e[5mC]*e[5mC]*eA*e[5mC]*e[5mC]*eG*eA*e[5mC]*eA*eG*e[5mC]*eA*eA*eT*eG*eA*eA*eT*eG*eT*eT) [compound 327941],G1 (percentage of cells in phase of the cell cycle),[1],57.2%
same,G2/M (percentage of cells in phase of the cell cycle),[1],12.9%
same,S (percentage of cells in phase of the cell cycle),[1],29.9%
same,SubG1 (percentage of cells in phase of the cell cycle),[1],8.2%
same,aneuploid (percentage of cells),[1],15.8%
same,"IL-12 mRNA expression, % UTC","[2]; 75 nM, +IFN",4 % UTC
same,"IL-12 mRNA expression, % UTC","[2]; 75 nM, −IFN",49 % UTC
same,"IL-12 mRNA expression, % UTC","[2]; 150 nM, +IFN",2 % UTC
same,"IL-12 mRNA expression, % UTC","[2]; 150 nM, −IFN",45 % UTC
same,"IL-12 mRNA expression, −IFN % UTC","[2]; 300 nM oligomeric compound and LPS, no IFN-gamma pretreatment, single experiment, normalized to LPS-treated cells without oligomeric compound",89 % UTC
same,"IL-12 mRNA expression, +IFN % UTC","[2]; 300 nM oligomeric compound, stimulation with IFN-gamma and LPS, average of 2 experiments, normalized to LPS-treated cells without oligomeric compound",34 % UTC
same,"IL-12 mRNA expression, % UTC","[2]; 300 nM, +IFN",3 % UTC
same,"IL-12 mRNA expression, % UTC","[2]; 300 nM, −IFN",34 % UTC
same,"IL-12 mRNA expression, % UTC","[2]; 600 nM, +IFN",3 % UTC
same,"IL-12 mRNA expression, % UTC","[2]; 600 nM, −IFN",41 % UTC

# Reference: patent US8178506B2, “Oligomeric compounds and compositions for use in modulation of small non-coding RNAs” (Regulus Therapeutics Inc., priority 2003, dated 2012)
